Results: patent publication US20090156477A1, “Compositions and Methods for Regulating Inflammatory Responses” (Massachusetts Institute of Technology, priority 2005, published 2009)

B1: FGF7: Recombinant human FGF7 from Sigma (protein, UniProt P21781 32-194, looked up)
Fibroblast growth factor 7: CNDMTPEQMATNVNCSSPERHTRSYDYMEGGDIRVRRLFCRTQWYLRIDKRGKVKGTQEMKNNYNIMEIRTVAVGIVAIKGVESEFYLAMNKEGKLYAKKECNEDCNFKELILENHYNTYASAKWTHNGGEMFVALNQKGIPVRGKKTKKEQKTAHFLPMAIT

Tests used:
Wnt3 = assay: RT-PCR expression in Caco-2 cells after FGF treatment: Wnt3; type: cell-based, human; settings: normalized to PBS treatment, defined as 1.0
From the text: Five μg of total RNA was isolated from Caco-2 cells using Trizol reagent (Life Tech, Rockville, Md.) followed by reverse transcription with random hexamers. Specific oligomers were designed based on published sequences in order to detect the expression of specific human Wnt, Fz and syndecan isoforms. Sequences of primer pairs were as follows: Wnt-1: 5′-CACGACCTCGTCTACTTCGAC-3′ (SEQ ID NO: 17) and 5′-ACAGACACTCGTGCAGTACGC-3′ (SEQ ID NO: 18); Wnt-2: 5′-CATGGTGGTACATGAGAGCTAC-3′ (SEQ ID NO: 19) and 5′-GGCAAATACAACTCCAGCTGAG-3′ (SEQ ID NO: 20); Wnt-3: 5′-GAGAGCCTCCCCGTCCACAG-3′ (SEQ ID NO: 21) and 5′-CTGCCAGGAGTGTATTCGCATC-3′ (SEQ ID NO: 22); Wnt-3a: 5′-CAGGAACTACGTGGAGATCATG-3′ (SEQ ID NO: 23) and 5′-CCATCCCACCAAACTCGATGTC-3′ (SEQ ID NO: 24); Fz-1: 5′-GAACTTTCCTCCAACTTCATGGC-3′ (SEQ ID NO: 25) and 5′-CATTTCCATTTTACAGACCGG-3′ (SEQ ID NO: 26); Fz-2: 5′-GGTGAGCCAGCACTGCAAGAG-3′ (SEQ ID NO: 27) and 5′-CCTAAAAGTGAAATGGTTTCGATCG-3′ (SEQ ID NO: 28); Fz-10: 5′-ACACGTCCAACGCCAGCATG-3′ (SEQ ID NO: 29) and 5′-ACGAGTCATGTTGTAGCCGATG-3′ (SEQ ID NO: 30); and Syndecan-1/Sdc-1/CD138: 5′-CTTCACACTCCCCACACAGA-3′ (SEQ ID NO: 31) and 5′-TCCTGTTTGGTGGGCTTCTG-3′ (SEQ ID NO: 32). To control for total cell […], RT-PCR was also performed on β-actin using the primers 5′-GCCAGCTCACCATGGATGATGATAT-3′ (SEQ ID NO: 33) and 5′-GCTTGCTGATCCACATCTGCTGGAA-3′ (SEQ ID NO: 34). PCR was performed using the Advantage-GC cDNA kit from Clontech as per manufacturer's instructions (Palo Alto, Calif.).

syndecan-1 = assay: Immunohistochemistry for syndecan-1 in Caco-2 cells; type: cell-based, human; settings: for syndecan-1 localization, one hour after treatment: 1 hour; for syndecan-1 distribution after 24 hours: compared to FGF1 treated cells
Method: Caco-2 cells were grown to just prior to confluency on collagen IV coated glass slides. Cells were treated with PBS, FGF1, FGF2 and FGF7, and were incubated at 37° C. in a 5% CO2 humidified incubator for 1 hour, 4 hours, 24 hours or 48 hours, as noted. Cells were washed with PBS, fixed with 3.7% formalin for 10 minutes and washed again with PBS. Cells were treated with 0.1% Triton x-100 for 5 minutes to extract lipids. Cells were washed with PBS and preincubated with PBS supplemented with 1% bovine serum albumin. Primary antibodies were added for 4 hours at room temperature, and cells were washed with PBS. Primary antibodies used were as follows: rabbit anti-human ZO-1 (1:160; Zymed Laboratories, San Francisco, Calif.); mouse anti-human syndecan-1 (1:300; Santa Cruz Biotechnology); goat anti-human Fz-1 (1:125; Santa Cruz Biotechnology); rabbit anti-human caveolin-1 (1:250; Santa Cruz Biotechnology); goat anti-human glypican-1 (1:100; Santa Cruz Biotechnology); mouse anti-human E-cadherin (1:250; Zymed Laboratories); rabbit anti-human β-catenin (1:125; Cell Signaling Technology, Beverly, Mass.); and rabbit anti-human phospho-β-catenin (Ser33/37/Thr41; 1:125; Cell Signaling Technology, Beverly, Mass.).
Cells were then treated with secondary antibodies, Texas Red-labeled phalloidin (Molecular Probes, Eugene, Oreg.) or FLAER-FL1 (1:400; Protox Biotech, Victoria, BC, Canada) as appropriate for 1 hour in the dark at room temperature. Secondary antibodies used were as follows: FITC-labeled chicken anti-rabbit (for ZO-1; 1:100; Molecular Probes, Eugene, Oreg.); Texas Red-labeled goat-anti mouse (for syndecan-1; 1:400; Molecular Probes); FITC-labeled donkey anti-mouse (for syndecan-1; 1:400; Molecular Probes, Eugene, Oreg.); FITC-labeled rabbit anti-mouse (for syndecan-1 and E-cadherin; 1:500; Molecular Probes, Eugene, Oreg.); Texas Red-labeled rabbit anti-goat (for Fz-1; 1:200; Jackson ImmunoResearch Laboratories, West Grove, Pa.); Texas Red-labeled goat anti-rabbit (for caveolin-1, β-catenin and phospho-β-catenin; 1:500; Molecular Probes); and Texas Red-labeled donkey anti-goat (for glypican-1; 1:80; Research Diagnostics, Flanders, N.J.).
Cells, except those stained with phalloidin, were washed with PBS and stained with diamidino-2-phenylindole (DAPI) for 5 minutes at room temperature (Molecular Probes). Controls of no antibody, primary antibody only, and secondary antibody only were performed. Cells were examined by confocal microscopy (ZO-1 and phalloidin only), or by fluorescence microscopy. A Nikon HB10101AF fluorescence microscope was used and images were captured at room temperature using a Hitachi HVC20 camera and Scion image acquisition software. Images were processed using Adobe Photoshop 7.0 and Adobe Illustrator 10.0.

| Molecule | Wnt3 expression (intensity of RT-PCR images) (Wnt3) | syndecan-1 localization, one hour after treatment (syndecan-1) | syndecan-1 distribution after 24 hours (syndecan-1) |
| --- | --- | --- | --- |
| FGF1: Recombinant human FGF1 from Amgen | 1.3 | seen to a lesser amount |  |
| FGF2: Recombinant human FGF2, produced as described | 1.3 | primarily localized around the nucleus | moderately enhanced cytoplasmic and membrane-associated distribution of syndecan-1 |
| B1 | 1.2 | primarily localized around the nucleus | moderately enhanced cytoplasmic and membrane-associated distribution of syndecan-1 |
